Calls of active or inactive are those of the source. No cut-off for these calls is given here.
Target: Amyloid-beta precursor protein (Homo sapiens) (UniProt P05067)
Sequence (P05067 whole entry): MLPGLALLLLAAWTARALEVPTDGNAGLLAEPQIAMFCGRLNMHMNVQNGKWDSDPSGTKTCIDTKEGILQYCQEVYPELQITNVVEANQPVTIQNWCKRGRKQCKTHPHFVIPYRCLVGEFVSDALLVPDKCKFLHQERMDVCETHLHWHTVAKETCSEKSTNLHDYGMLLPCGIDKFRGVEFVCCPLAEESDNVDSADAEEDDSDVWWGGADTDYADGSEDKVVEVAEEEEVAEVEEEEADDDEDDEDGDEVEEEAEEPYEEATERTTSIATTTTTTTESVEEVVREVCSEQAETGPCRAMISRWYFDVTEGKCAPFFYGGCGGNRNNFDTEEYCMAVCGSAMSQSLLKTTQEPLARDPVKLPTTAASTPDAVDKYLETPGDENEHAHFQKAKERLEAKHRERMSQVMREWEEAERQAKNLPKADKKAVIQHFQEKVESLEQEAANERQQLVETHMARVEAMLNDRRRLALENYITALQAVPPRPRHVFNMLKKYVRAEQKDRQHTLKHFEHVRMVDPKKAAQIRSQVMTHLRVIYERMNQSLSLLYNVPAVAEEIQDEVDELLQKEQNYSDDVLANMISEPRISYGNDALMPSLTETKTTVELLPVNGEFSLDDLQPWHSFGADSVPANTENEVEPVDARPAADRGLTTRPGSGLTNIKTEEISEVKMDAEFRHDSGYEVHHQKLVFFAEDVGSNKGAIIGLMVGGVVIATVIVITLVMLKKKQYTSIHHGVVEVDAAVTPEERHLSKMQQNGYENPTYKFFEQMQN
Experiment: Inhibition of aggregation of amyloid beta-42 (unknown origin) expressed in Escherichia coli BL21 (DE3) assessed as amyloid fibril formation at 10 uM after 24 hrs by thioflavin S fluorescence method
Conditions: not given
Work on `CC1=CC2Cc3nc4cc(Cl)ccc4c(NCCCCCCNC(=O)c4cc(O)c5c(c4)C(=O)c4cccc(O)c4C5=O)c3C(C1)C2` (racemic) yielded an inhibition of 68.4%. With `CC1=CC2Cc3nc4cc(Cl)ccc4c(NCCCCCCCCCCCNC(=O)c4cc(O)c5c(c4)C(=O)c4cccc(O)c4C5=O)c3C(C1)C2.Cl` (racemic) the inhibition was 40.7%. For `CC1=CC2Cc3nc4cc(Cl)ccc4c(N)c3C(C1)C2.Cl` (racemic), the inhibition was “inactive”. `O=C(O)c1cc(O)c2c(c1)C(=O)c1cccc(O)c1C2=O` [RHEIN] gave an inhibition of 49.9%.

Target: Acetylcholinesterase (Homo sapiens, UniProt P22303)
Sequence (P22303 whole entry): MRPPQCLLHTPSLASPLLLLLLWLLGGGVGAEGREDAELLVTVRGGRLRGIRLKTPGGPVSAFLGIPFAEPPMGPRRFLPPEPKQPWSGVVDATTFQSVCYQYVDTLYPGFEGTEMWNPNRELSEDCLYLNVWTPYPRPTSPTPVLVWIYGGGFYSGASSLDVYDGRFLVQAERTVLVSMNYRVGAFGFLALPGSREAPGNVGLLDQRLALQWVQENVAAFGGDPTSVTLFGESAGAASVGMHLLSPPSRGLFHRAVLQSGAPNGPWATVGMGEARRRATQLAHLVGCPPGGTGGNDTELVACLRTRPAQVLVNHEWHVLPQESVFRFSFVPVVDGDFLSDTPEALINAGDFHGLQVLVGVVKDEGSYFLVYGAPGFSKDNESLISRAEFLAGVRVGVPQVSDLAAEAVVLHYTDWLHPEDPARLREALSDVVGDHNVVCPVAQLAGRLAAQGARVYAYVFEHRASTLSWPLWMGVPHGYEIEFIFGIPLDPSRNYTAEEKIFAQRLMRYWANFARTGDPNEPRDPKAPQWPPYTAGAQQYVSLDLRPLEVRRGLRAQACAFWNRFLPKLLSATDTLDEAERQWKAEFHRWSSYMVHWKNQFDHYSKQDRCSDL
Conditions: not given
For `CC1=CC2Cc3nc4cc(Cl)ccc4c(NCCCCCCNC(=O)c4cc(O)c5c(c4)C(=O)c4cccc(O)c4C5=O)c3C(C1)C2` (racemic), the IC50 was 0.00152 µM. In the case of `O=C(O)c1cc(O)c2c(c1)C(=O)c1cccc(O)c1C2=O` [RHEIN], the IC50 is reported as > 10 µM.

Target: T1, Beta-secretase 1 (Homo sapiens, UniProt P56817)
T1 sequence (P56817 whole entry): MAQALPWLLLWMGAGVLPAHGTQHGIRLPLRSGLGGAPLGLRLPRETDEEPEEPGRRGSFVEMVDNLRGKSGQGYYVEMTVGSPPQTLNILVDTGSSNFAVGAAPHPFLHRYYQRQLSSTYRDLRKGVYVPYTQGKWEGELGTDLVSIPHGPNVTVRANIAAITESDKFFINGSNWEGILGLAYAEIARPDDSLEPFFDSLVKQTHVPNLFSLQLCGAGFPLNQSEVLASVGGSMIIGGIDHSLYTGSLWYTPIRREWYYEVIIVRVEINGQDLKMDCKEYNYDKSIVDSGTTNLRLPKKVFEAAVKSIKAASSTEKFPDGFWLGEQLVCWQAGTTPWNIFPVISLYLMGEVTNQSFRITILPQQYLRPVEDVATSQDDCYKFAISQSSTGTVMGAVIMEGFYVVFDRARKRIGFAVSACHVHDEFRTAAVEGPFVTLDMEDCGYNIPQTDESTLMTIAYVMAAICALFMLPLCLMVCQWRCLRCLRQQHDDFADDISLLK
Experiment: Inhibition of human recombinant BACE1 using methoxycoumarin-Ser-Glu-Val-Asn-Leu-Asp-Ala-Glu-Phe-Lys-dinitrophenyl as substrate at 1 uM preincubated for 1 hr by FRET assay
Conditions: not given
With `CC1=CC2Cc3nc4cc(Cl)ccc4c(NCCCCCCNC(=O)c4cc(O)c5c(c4)C(=O)c4cccc(O)c4C5=O)c3C(C1)C2` (racemic) the inhibition was “inactive”.

Target: T1, Beta-secretase 1
Experiment: Inhibition of human recombinant BACE1 using methoxycoumarin-Ser-Glu-Val-Asn-Leu-Asp-Ala-Glu-Phe-Lys-dinitrophenyl as substrate preincubated for 1 hr by FRET assay
Conditions: not given
In the case of `O=C(O)c1cc(O)c2c(c1)C(=O)c1cccc(O)c1C2=O` [RHEIN], the IC50 is reported as “Not Active”.

Same assay, conditions: read-out: IC50
Work on `CC1=CC2Cc3nc4cc(Cl)ccc4c(NCCCCCCCCCCCNC(=O)c4cc(O)c5c(c4)C(=O)c4cccc(O)c4C5=O)c3C(C1)C2.Cl` (racemic) yielded an IC50 of 1.2 µM.

Target: Cholinesterase (Homo sapiens, UniProt P06276)
Sequence (P06276 whole entry): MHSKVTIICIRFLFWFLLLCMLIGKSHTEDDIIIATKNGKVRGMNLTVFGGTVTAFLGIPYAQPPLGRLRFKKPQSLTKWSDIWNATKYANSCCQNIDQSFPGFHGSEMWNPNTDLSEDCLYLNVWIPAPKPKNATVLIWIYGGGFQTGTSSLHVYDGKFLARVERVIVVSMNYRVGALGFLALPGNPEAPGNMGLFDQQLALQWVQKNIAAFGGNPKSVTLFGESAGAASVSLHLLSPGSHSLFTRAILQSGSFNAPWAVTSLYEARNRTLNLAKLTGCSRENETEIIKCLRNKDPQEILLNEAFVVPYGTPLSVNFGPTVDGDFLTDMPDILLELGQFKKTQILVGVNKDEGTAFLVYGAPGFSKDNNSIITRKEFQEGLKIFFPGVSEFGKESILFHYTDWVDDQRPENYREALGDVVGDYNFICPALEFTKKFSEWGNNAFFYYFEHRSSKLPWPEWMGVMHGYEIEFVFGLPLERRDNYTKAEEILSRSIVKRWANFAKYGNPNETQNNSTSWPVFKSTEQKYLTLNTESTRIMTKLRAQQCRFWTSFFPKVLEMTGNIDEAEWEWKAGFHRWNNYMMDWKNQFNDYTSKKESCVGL
Experiment: Inhibition of human serum BChE using butyrylthiocholine iodide as substrate preincubated for 20 mins by Ellman's method
Conditions: not given
With `CC1=CC2Cc3nc4cc(Cl)ccc4c(NCCCCCCNC(=O)c4cc(O)c5c(c4)C(=O)c4cccc(O)c4C5=O)c3C(C1)C2` (racemic) the IC50 was 1.07 µM.

Target: Microtubule-associated protein tau (Homo sapiens) (UniProt P10636)
Sequence (P10636 whole entry): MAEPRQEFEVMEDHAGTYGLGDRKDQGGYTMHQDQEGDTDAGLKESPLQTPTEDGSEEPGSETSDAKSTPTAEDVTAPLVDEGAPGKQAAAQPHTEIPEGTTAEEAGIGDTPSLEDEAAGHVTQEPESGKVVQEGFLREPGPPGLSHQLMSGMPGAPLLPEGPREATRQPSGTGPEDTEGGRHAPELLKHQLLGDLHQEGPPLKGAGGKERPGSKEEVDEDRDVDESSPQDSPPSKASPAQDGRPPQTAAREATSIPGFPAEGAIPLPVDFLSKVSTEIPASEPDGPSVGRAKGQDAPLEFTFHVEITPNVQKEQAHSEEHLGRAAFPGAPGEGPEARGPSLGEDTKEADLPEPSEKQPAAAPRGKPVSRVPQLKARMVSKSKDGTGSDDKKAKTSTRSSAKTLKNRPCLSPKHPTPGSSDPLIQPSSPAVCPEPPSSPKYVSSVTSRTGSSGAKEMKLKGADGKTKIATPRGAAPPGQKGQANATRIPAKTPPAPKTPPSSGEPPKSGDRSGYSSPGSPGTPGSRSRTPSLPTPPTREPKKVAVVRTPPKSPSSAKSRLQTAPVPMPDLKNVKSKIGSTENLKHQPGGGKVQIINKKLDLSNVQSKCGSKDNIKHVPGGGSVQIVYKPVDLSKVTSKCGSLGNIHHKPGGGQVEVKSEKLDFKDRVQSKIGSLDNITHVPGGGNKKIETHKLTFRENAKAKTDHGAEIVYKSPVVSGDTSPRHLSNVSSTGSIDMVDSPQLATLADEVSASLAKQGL
Experiment: Inhibition of aggregation of tau protein (unknown origin) expressed in Escherichia coli BL21 (DE3) assessed as amyloid fibril formation at 10 uM after 24 hrs by thioflavin S fluorescence method
Conditions: not given
Compound `CC1=CC2Cc3nc4cc(Cl)ccc4c(NCCCCCCNC(=O)c4cc(O)c5c(c4)C(=O)c4cccc(O)c4C5=O)c3C(C1)C2` (racemic) has an inhibition of 30.9%. With `CC1=CC2Cc3nc4cc(Cl)ccc4c(NCCCCCCCCCCCNC(=O)c4cc(O)c5c(c4)C(=O)c4cccc(O)c4C5=O)c3C(C1)C2.Cl` (racemic) the inhibition was 46.3%. For `CC1=CC2Cc3nc4cc(Cl)ccc4c(N)c3C(C1)C2.Cl` (racemic), the inhibition was “inactive”. Compound `O=C(O)c1cc(O)c2c(c1)C(=O)c1cccc(O)c1C2=O` [RHEIN] has an inhibition of 40.8%.

System: not listed separately
Experiment: Permeability of the compound by PAMPA assay
Assay type: physicochemical
Conditions: read-out: permeability
Compound `CC1=CC2Cc3nc4cc(Cl)ccc4c(NCCCCCCCCCCCNC(=O)c4cc(O)c5c(c4)C(=O)c4cccc(O)c4C5=O)c3C(C1)C2.Cl` (racemic) has a Papp of 16.4 ×10⁻⁶ cm/s. `O=C(O)c1cc(O)c2c(c1)C(=O)c1cccc(O)c1C2=O` [RHEIN] gave a Papp of 2.7 ×10⁻⁶ cm/s.

Target: Amyloid-beta precursor protein (Homo sapiens) (UniProt P05067)
Experiment: Inhibition of amyloid beta-42 (unknown origin) aggregation assessed as amyloid fibril formation at 10 uM after 24 hrs by thioflavin T fluorescence method
Conditions: not given
For `CC1=CC2Cc3nc4cc(Cl)ccc4c(NCCCCCCNC(=O)c4cc(O)c5c(c4)C(=O)c4cccc(O)c4C5=O)c3C(C1)C2` (racemic), the inhibition was 40.8%. For `CC1=CC2Cc3nc4cc(Cl)ccc4c(NCCCCCCCCCCCNC(=O)c4cc(O)c5c(c4)C(=O)c4cccc(O)c4C5=O)c3C(C1)C2.Cl` (racemic), the inhibition was 35.3%.

From ChEMBL document CHEMBL3232829, “Synthesis and multitarget biological profiling of a novel family of rhein derivatives as disease-modifying anti-Alzheimer agents” (J Med Chem, 2014)
